{"source": "paper PMC8459971", "about": "“Evaluation of the hepatotoxicity of the novel GPR40 (FFAR1) agonist CPL207280 in the rat and monkey” (PLoS ONE, 2021)", "key": {"[1]": {"details": "phase III studies, within six months; cited from earlier work"}, "[2]": {"details": "cited from earlier work"}, "[3]": {"details": "cited from earlier work", "remark": "listed apart in the source"}, "[4]": {"molecular_target": "T1, BSEP (Homo sapiens, UniProt O95342)", "T1 sequence (O95342 whole entry)": "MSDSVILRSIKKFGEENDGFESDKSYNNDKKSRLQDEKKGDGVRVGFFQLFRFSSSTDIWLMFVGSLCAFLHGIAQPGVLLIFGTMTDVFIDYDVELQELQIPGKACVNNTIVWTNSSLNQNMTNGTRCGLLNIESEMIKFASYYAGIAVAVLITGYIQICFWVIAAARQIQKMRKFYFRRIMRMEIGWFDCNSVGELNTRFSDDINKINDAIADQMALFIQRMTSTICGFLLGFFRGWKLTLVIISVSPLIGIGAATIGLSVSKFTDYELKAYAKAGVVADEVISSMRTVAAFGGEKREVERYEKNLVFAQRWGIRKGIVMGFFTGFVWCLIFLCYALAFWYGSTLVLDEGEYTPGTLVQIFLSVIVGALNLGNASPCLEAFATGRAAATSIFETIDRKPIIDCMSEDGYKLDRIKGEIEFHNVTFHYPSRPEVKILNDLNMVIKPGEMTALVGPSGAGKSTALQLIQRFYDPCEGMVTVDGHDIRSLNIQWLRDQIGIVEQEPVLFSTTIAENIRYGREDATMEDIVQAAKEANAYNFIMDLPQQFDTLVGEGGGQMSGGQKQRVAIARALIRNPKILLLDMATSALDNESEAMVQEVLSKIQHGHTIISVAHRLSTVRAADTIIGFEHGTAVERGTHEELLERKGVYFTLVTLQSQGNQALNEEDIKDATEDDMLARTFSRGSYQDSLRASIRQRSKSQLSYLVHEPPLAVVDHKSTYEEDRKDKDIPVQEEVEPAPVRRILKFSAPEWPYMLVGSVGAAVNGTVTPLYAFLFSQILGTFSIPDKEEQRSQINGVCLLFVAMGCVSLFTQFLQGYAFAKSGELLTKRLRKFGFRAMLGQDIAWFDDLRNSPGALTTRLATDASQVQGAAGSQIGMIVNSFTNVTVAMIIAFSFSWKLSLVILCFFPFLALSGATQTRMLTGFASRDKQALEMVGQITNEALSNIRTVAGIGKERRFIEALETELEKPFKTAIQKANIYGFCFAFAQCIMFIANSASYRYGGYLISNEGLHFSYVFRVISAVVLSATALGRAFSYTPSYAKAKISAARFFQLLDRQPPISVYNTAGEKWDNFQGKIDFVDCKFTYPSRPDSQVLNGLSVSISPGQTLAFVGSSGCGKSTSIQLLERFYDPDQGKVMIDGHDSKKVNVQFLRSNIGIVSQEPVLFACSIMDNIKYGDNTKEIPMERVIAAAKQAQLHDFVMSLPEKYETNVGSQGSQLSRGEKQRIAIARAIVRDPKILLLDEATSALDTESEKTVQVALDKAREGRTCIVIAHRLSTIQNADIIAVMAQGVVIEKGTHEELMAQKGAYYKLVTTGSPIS", "assay": "biochemical", "experimental": "(§3) In the vesicular transport inhibition assay (for BSEP, MRP) compounds were incubated with membrane vesicle preparations and the probe substrate. Incubations were carried out in the presence of 4 mM ATP or AMP to distinguish between transporter-mediated uptake and passive diffusion into the vesicles. For MRP2 and MRP3, reactions were carried out in the presence of 2 mM glutathione. Compounds were added to the reaction mixture in 0.75 μL of solvent (1% of the final incubation volume). […] Reactions were initiated by the addition of 25 μL of 12 mM MgATP (or 12 mM AMP in assay buffer as a background control) and preincubated separately. Reactions were quenched by the addition of 200 μL of ice-cold washing buffer and immediate filtration via glass fiber filters mounted on a 96-well plate (filter plate). The filters were washed (5 × 200 μL of ice-cold washing buffer), dried, and the amount of substrate inside the filtered vesicles was determined by liquid scintillation counting."}, "[5]": {"assay": "Stability in cryopreserved hepatocytes, rat", "assay_type": "in vitro ADME", "details": "for Compound Remaining (% of 0 min): Hepatocyte Stability Rat, single replicates", "protocol": "(§1) The final incubation volume was 500 μL. Two control compounds (verapamil and donepezil) were included for each microsomal species, along with the appropriate vehicle control. The reactions were terminated by transferring 50 μL of incubate to 100 μL methanol containing an internal standard (metoprolol) at appropriate time points (0, 10, 20, 40, 60, and 120 min for the test compound and 0, 5, 10, 20, 40, and 60 min for the control compounds). The termination plates were centrifuged at 4000 x g at 4°C for 30 min to precipitate the protein. The supernatants were then collected for analysis, and LC-MS/MS was used for detection purposes. The system consisted of an Acquity™ Binary Solvent Manager, Acquity™ 4-position heated column manager, 2777 Ultra High Pressure Autosampler, and a Xevo-TQ MS triple quadrupole mass spectrometer (Waters Ltd., Herts, UK). This process was carried out twice."}, "[6]": {"assay": "Stability in cryopreserved hepatocytes, mouse", "assay_type": "in vitro ADME", "details": "for Compound Remaining (% of 0 min): Hepatocyte Stability Mouse, single replicates", "protocol": "as §1"}, "[7]": {"assay": "Stability in cryopreserved hepatocytes, dog", "assay_type": "in vitro ADME", "details": "for Compound Remaining (% of 0 min): Hepatocyte Stability Dog, single replicates", "protocol": "as §1"}, "[8]": {"assay": "Stability in cryopreserved hepatocytes, monkey", "assay_type": "in vitro ADME", "details": "for Compound Remaining (% of 0 min): Hepatocyte Stability Monkey, single replicates", "protocol": "as §1"}, "[9]": {"assay": "Metabolite profiling, monkey hepatocytes", "assay_type": "in vitro ADME", "details": "10 μM CPL207280, 60 min, ND = not detected", "protocol": "(§2) Suspensions of cryopreserved human, rat, and monkey hepatocytes were pooled from a minimum of three individuals. All cryopreserved hepatocytes were purchased from a commercial supplier. […] The cell density was 0.5 ×10^6 viable cells/mL. The final DMSO concentration during the incubation was 0.25%. Control incubations were performed in lysed cells to reveal any non-enzymatic degradation. Two control compounds were identified in each species. Samples (50 μL) were removed from the incubation mixture at 0, 10, 20, 40, 60, and 120 min and added to methanol containing an internal standard (100 μL) to stop the reaction. The samples were centrifuged (4000 x g at 4°C for 30 min) and the supernatants at each time point were pooled for analysis by LC MS/MS using Cyprotex generic methods. Following hepatocyte stability assays, the samples were utilized for metabolite profiling. […] Metabolites were characterized using a mass spectrometer comprising Waters Xevo QT of G2-S, Acquity Binary Solvent Manager, Acquity Column Manager, and 2777 Autosampler."}, "[10]": {"assay": "Metabolite profiling, rat hepatocytes", "assay_type": "in vitro ADME", "details": "10 μM CPL207280, 120 min, ND = not detected", "protocol": "as §2"}, "[11]": {"assay": "Repeat-dose study in healthy Wistar Han rats, safety (14 and 56 days)", "assay_type": "in vivo, rat"}, "[12]": {"assay": "Repeat-dose study in diabetic cynomolgus monkeys, serum ALT and AST", "assay_type": "in vivo", "details": "2.2 and 22 mg/kg, 28 treatment days", "source_text": "All animals aged 8–20 years had ad libitum access to water and were fed twice daily with a complete nutritionally balanced diet (Beijing Keao Xieli Feed Co., LTD, Beijing, China) enriched with seasonal fruits. The cynomolgus monkeys used in the study were cared for and handled in accordance with all applicable Association for Assessment and Accreditation of Laboratory Animal Care regulations and guidelines. […] After each treatment (weighing, bleeding, or dosing), the animals were clinically observed on the day of the procedure and, if previously anesthetized, the animals were monitored to stand up and alert. Nine selected diabetic animals were subjected to daily test compound (powder) dosing via natural feeding with bananas (n = 3). Blood from overnight-fasted animals was collected weekly in the morning for measurement of serum ALT and AST levels on days 0, 7, 14, 21, 28, and 35. Blood samples (1.5 mL) were collected from a cephalic or saphenous vein into BD Vacutainer® and K2-EDTA tubes."}, "[13]": {"molecular_target": "T1, BSEP", "assay": "in vitro", "details": "membrane vesicle preparations (BSEP)", "experimental": "as §3"}, "[14]": {"details": "cryopreserved hepatocytes (suspension), Rat (Sprague Dawley) hepatocytes, mean n = 2"}, "[15]": {"details": "cryopreserved hepatocytes (suspension), Mouse (CD) hepatocytes, mean n = 2"}, "[16]": {"details": "cryopreserved hepatocytes (suspension), Dog (Beagle) hepatocytes, mean n = 2"}, "[17]": {"details": "cryopreserved hepatocytes (suspension), Monkey (Cynomolgus) hepatocytes, mean n = 2"}}, "note": "“And” between values parts separate entries of the source, which are not always exact repeats. Equal entries are not always repeated. “Also recorded” adds a separate entry of the source."}
{"molecule": "Cc1cc(OCCCS(C)(=O)=O)cc(C)c1-c1cccc(COc2ccc3c(c2)OC[C@H]3CC(=O)O)c1", "note": "[TAK-875, fasiglifam, reference compound]", "values": [{"measurement": "study participants with serum ALT elevations > 3 × ULN", "setting": "[1]", "value": 2.7, "unit": "%"}, {"measurement": "plasma protein binding (PPB)", "setting": "[2]", "value": "> 99.4", "unit": "%"}, {"measurement": "long exposure in humans", "setting": "[3]", "value": "approximately 30 h"}, {"measurement": "IC50", "setting": "[4]", "value": 47.3, "unit": "µM"}]}
{"molecule": "CC#C[C@@H](CC(=O)O)c1ccc(OCC(C)=C(C)C)cc1", "note": "[CPL207280]", "values": [{"measurement": "Compound Remaining (% of 0 min)", "setting": "[5]; 0 min", "value": "100 % of 0 min"}, {"measurement": "Compound Remaining (% of 0 min)", "setting": "[5]; 10 min", "value": "101 % of 0 min and 81.5 % of 0 min"}, {"measurement": "Compound Remaining (% of 0 min)", "setting": "[5]; 20 min", "value": "79.0 % of 0 min and 77.8 % of 0 min"}, {"measurement": "Compound Remaining (% of 0 min)", "setting": "[5]; 40 min", "value": "77.7 % of 0 min and 66.7 % of 0 min"}, {"measurement": "Compound Remaining (% of 0 min)", "setting": "[5]; 60 min", "value": "72.8 % of 0 min and 73.3 % of 0 min"}, {"measurement": "Compound Remaining (% of 0 min)", "setting": "[5]; 120 min", "value": "65.3 % of 0 min and 56.0 % of 0 min"}, {"measurement": "half-life at 3 μM", "setting": "[5]; [14]", "value": 3.1, "unit": "h"}, {"measurement": "microsomal CLint at 3 μM", "setting": "[5]; [14]", "value": 7.51, "unit": "µL/min/mg"}, {"measurement": "Compound Remaining (% of 0 min)", "setting": "[6]; 0 min", "value": "100 % of 0 min"}, {"measurement": "Compound Remaining (% of 0 min)", "setting": "[6]; 10 min", "value": "92.6 % of 0 min and 92.7 % of 0 min"}, {"measurement": "Compound Remaining (% of 0 min)", "setting": "[6]; 20 min", "value": "92.0 % of 0 min and 89.0 % of 0 min"}, {"measurement": "Compound Remaining (% of 0 min)", "setting": "[6]; 40 min", "value": "86.8 % of 0 min and 80.9 % of 0 min"}, {"measurement": "Compound Remaining (% of 0 min)", "setting": "[6]; 60 min", "value": "79.1 % of 0 min and 85.2 % of 0 min"}, {"measurement": "Compound Remaining (% of 0 min)", "setting": "[6]; 120 min", "value": "81.9 % of 0 min and 77.1 % of 0 min"}, {"measurement": "half-life at 3 μM", "setting": "[6]; [15]", "value": 6.73, "unit": "h"}, {"measurement": "microsomal CLint at 3 μM", "setting": "[6]; [15]", "value": 3.46, "unit": "µL/min/mg"}, {"measurement": "Compound Remaining (% of 0 min)", "setting": "[7]; 0 min", "value": "100 % of 0 min"}, {"measurement": "Compound Remaining (% of 0 min)", "setting": "[7]; 10 min", "value": "93.0 % of 0 min and 92.9 % of 0 min"}, {"measurement": "Compound Remaining (% of 0 min)", "setting": "[7]; 20 min", "value": "83.6 % of 0 min and 74.9 % of 0 min"}, {"measurement": "Compound Remaining (% of 0 min)", "setting": "[7]; 40 min", "value": "73.0 % of 0 min and 74.7 % of 0 min"}, {"measurement": "Compound Remaining (% of 0 min)", "setting": "[7]; 60 min", "value": "61.1 % of 0 min and 62.8 % of 0 min"}, {"measurement": "Compound Remaining (% of 0 min)", "setting": "[7]; 120 min", "value": "65.2 % of 0 min and 60.1 % of 0 min"}, {"measurement": "half-life at 3 μM", "setting": "[7]; [16]", "value": 3, "unit": "h"}, {"measurement": "microsomal CLint at 3 μM", "setting": "[7]; [16]", "value": 7.76, "unit": "µL/min/mg"}, {"measurement": "Compound Remaining (% of 0 min)", "setting": "[8]; 0 min", "value": "100 % of 0 min"}, {"measurement": "Compound Remaining (% of 0 min)", "setting": "[8]; 10 min", "value": "65.3 % of 0 min and 63.2 % of 0 min"}, {"measurement": "Compound Remaining (% of 0 min)", "setting": "[8]; 20 min", "value": "38.4 % of 0 min and 39.7 % of 0 min"}, {"measurement": "Compound Remaining (% of 0 min)", "setting": "[8]; 40 min", "value": "17.5 % of 0 min and 19.5 % of 0 min"}, {"measurement": "Compound Remaining (% of 0 min)", "setting": "[8]; 60 min", "value": "8.86 % of 0 min and 11.4 % of 0 min"}, {"measurement": "Compound Remaining (% of 0 min)", "setting": "[8]; 120 min", "value": "8.94 % of 0 min and 8.99 % of 0 min"}, {"measurement": "half-life at 3 μM", "setting": "[8]; [17]", "value": 0.283, "unit": "h"}, {"measurement": "microsomal CLint at 3 μM", "setting": "[8]; [17]", "value": 81.4, "unit": "µL/min/mg"}, {"measurement": "monkey % of parent at 60 min", "setting": "[9]", "value": 7.25, "unit": "%"}, {"measurement": "rat % of parent at 120 min", "setting": "[10]", "value": 57.6, "unit": "%"}, {"measurement": "MTD at 14 days", "setting": "[11]; both sexes, Wistar Han, rat, in vivo, oral, rats, 14-day study, read-out: maximum tolerated dose (MTD)", "value": 600, "unit": "mg/kg"}, {"measurement": "mortality", "setting": "[11]; rats, 1200 mg/kg group, 14-day study", "value": "death of one subject occurred on day 7"}, {"measurement": "ALT", "setting": "[11]; rats, 1200 mg/kg, 14 days, fasted blood, significant increase from 34.2±8.5, in U/L (unit assumed)", "value": "60.0±8.0"}, {"measurement": "ALP", "setting": "[11]; rats, 1200 mg/kg, 14 days, fasted blood, significant increase from 86.3±30.2, in U/L (unit assumed)", "value": "136.1±55.3"}, {"measurement": "ALT, AST and ALP", "setting": "[11]; rats, 14-day study, doses up to 600 mg/kg", "value": "no ALT, AST, and ALP elevation"}, {"measurement": "liver histopathology", "setting": "[11]; rats, 14 days", "value": "no microscopic changes in the liver tissue"}, {"measurement": "liver histopathology", "setting": "[11]; rats, 56 days", "value": "mild to moderate hypertrophy of centrilobular hepatocytes at doses ≥ 150 mg/kg/day; also recorded: minimal to mild centrilobular hepatocyte hypertrophy"}, {"measurement": "liver injury markers, TBA and T-BIL", "setting": "[11]; rats, 56 days, 50, 150 and 500 mg/kg", "value": "none of the previously monitored markers nor TBA and T-BIL were altered"}, {"measurement": "reversibility of hepatocyte hypertrophy / liver weight increase", "setting": "[11]; rats, 56 days, recovery period", "value": "reversible after 28 days"}, {"measurement": "liver mass as a percentage of body weight", "setting": "[11]; rats, all groups (300, 600, 1200 mg/kg/day), 14 days", "value": "dose-dependent enlargement of the liver"}, {"measurement": "Propensity to elevate liver enzyme damage markers", "setting": "[11]; summary comparison CPL207280 vs TAK-875 (TAK-875: ref 25), sign spans both columns", "value": "<"}, {"measurement": "Propensity to elevate bile acids and bilirubin in plasma", "setting": "[11]; summary table", "value": "No"}, {"measurement": "liver safety markers (ALT, AST) vs vehicle group", "setting": "[12]", "value": "none of the doses altered liver safety markers"}, {"measurement": "IC50", "setting": "[13]", "value": "> 100", "unit": "µM"}]}
